Assay results published in a melting point compilation (Tetko et al.; mined from patent text by program, amines drawn as free bases though some values may be those of a salt).

SMILES | melting point [°C]
CN(C(=O)c1cccc(S(=O)(=O)N(C)c2ccc(Br)cc2)c1)c1ccc(Cl)cc1F | 127 to 128
O=Cc1cn(-c2ccc(F)cc2)c2ccc(Cl)cc12 | 152 to 154
CCOc1nn(-c2ccc(C(F)(F)F)cn2)cc1CCCOc1cc(CCC(=O)O)n(C2CCCCC2)n1 | 89 to 90
O=C(Cc1ccccc1Nc1c(Cl)cccc1Cl)OCc1ccncc1 | 121 to 123
Cc1nc(-c2ccc(-c3ccc(C(=O)O)cc3)c(C)c2)no1 | 229 to 231
Brc1ccc(-c2ccc3ccccc3c2)cc1 | 121 to 123
CCOC(=O)Cc1csc(NC(=O)NC)n1 | 158 to 159
CS(=O)(=O)CC(=O)N[C@H]1CC[C@H](CCN2CCN(c3nccc4ccoc34)CC2)CC1 | 182
Cn1cc(C2=C(c3cn(CCCS)c4ccccc34)C(=O)NC2=O)c2ccccc21 | 155 to 157
O=C1CC2(C(=O)N1)C(=O)N(Cc1ccc(Br)cc1F)c1ccccc12 (stereo not given) | 218 to 220
N#CCc1ccccc1CCNC(=O)c1ccc([N+](=O)[O-])cc1 | 119
CCCc1c(OCCCCCCc2cccc(OCCCCCO)c2CCC(=O)O)ccc2c1OCCC2=O | 102 to 103
CSc1ccc2cc(Cc3ccccc3)cc(CCNC(C)=O)c2c1 | 126 to 128
CC(=O)Nc1cc(F)c(OCC(F)F)cc1[N+](=O)[O-] | 72 to 74
Clc1ccc(Cl)c(-c2csc(NC3=NCCCN3)n2)c1 | 188 to 189
O=C(O)Cc1c(Cl)nc(-c2ccccc2)n1Cc1ccccc1F | 144 to 146
Cc1ccc(C(C)C)n1N | 21 to 24
CC(C)(C)OC(=O)NCCc1ccc(O)cc1 | 61 to 62
O=C(CC1CCCC1)c1ccc[nH]1 | 49 to 51
Cc1cc(N)cc(C)c1O | 135 to 137
Cc1cc([N+](=O)[O-])cnc1NCCCN | 93 to 95
O=c1[nH]c(COc2ccc(Cl)c(Cl)c2)nc2nccnc12 | 285 to 287
COc1ccc2c(Cl)c(C(=O)Cl)sc2c1 | 120 to 121
CCC(=N)NC(=O)OC | 87 to 93
Cc1cc2cc(CN3CCCC3)cnc2cc1NC(=O)c1ccc(-c2ccco2)cc1 | 154

SMILES | melting point [°C]
CCOC(=O)n1c(C(=O)c2cncnc2)c(NC(C)=O)c2ccc(Cl)cc21 | 214 to 215
CN1CCC(c2c(O)cc(O)c3c(=O)cc(-c4ccccc4Cl)oc23)C1CN (stereo not given) | 218 to 219
Cc1ccc2c(c1C)OCC(NNc1ncnc3c1ncn3C1OC(CO)C(O)C1O)C2 (stereo not given) | 170 to 172
CCOc1ccc(-c2ncccc2S(=O)(=O)Nc2ncc(C)nc2OC)cc1 | 162 to 163
CONC(=O)Nc1ccc(-c2sc3c(c2CN(C)C(C)c2ccccn2)c(=O)n(-c2ccccn2)c(=O)n3Cc2c(F)cccc2F)cc1 (stereo not given) | 143 to 144
ClCc1nccn1Cc1ccccc1 | 180 to 182
CCc1c(CCNC(=O)CCCCC(=O)NC(C)(C)Cc2ccc3c(c2CC)OCO3)ccc(OC)c1OC | 103 to 104
C=CCc1ccc2oc(C(=O)O)cc(=O)c2c1O | 222 to 224
CCOc1cc(C(CC#N)N2C(=O)c3cccc([N+](=O)[O-])c3C2=O)ccc1OC (stereo not given) | 156 to 157
N#Cc1ccc(-c2ccc(-c3cccs3)s2)s1 | 122 to 125
O=C1C=C(NC(=O)C(=O)c2cn(Cc3ccc(Cl)cc3)c3ccc(Cl)cc23)CO1 | 251 to 253
Cn1ncc2c1-c1c(Oc3cccnc3)sc(C(=O)O)c1CC2 | 124 to 125
NC(=O)c1cc2c(Oc3ccc(C(F)(F)F)cc3)cnc(Cl)c2s1 | 175 to 176
C[C@@H]1CN(c2ccc3nc(-c4ccc(F)cc4)c(-c4ccnc5[nH]ccc45)n3n2)CCN1 | 285 to 287
CCCCCCCCCCCCCCCCCCNC(=O)OC[C@@H]1OCCC[C@H]1O (relative stereo) | 55 to 56
CCCCCCCCCCc1ccc(CNc2ccc(C(=O)OCC)cc2)cc1 | 87 to 90
COc1cc2c(Nc3ccc(Cl)cc3F)ncnc2cc1OCC1CCOC1 (stereo not given) | 201 to 202
O=C(SCC(Cc1ccccc1)C(=O)O)c1ccccc1 (stereo not given) | 99 to 100
COc1ccc2c(-c3ccccc3)c(C(=O)O)c(=O)[nH]c2c1 | 292 to 294
O=c1[nH]c2cc(Cl)ccc2n1CCCBr | 162
CCC(C)(C)c1cc(-c2ccc(C=C3SC(=O)NC3=O)cn2)cc2nc(C)oc12 | 312
N=C(Nc1ccc(F)c(NC(=O)/C=C/c2ccccc2C(F)(F)F)c1)c1cccs1 | 208 to 209
COc1nn(-c2ccc(C)c3c2OC(C)(C)C3)c(=O)o1 | 60 to 62
C=CCN(CC=C)Cc1noc(-c2ncn3c2[C@@H]2CCN2C(=O)c2ccccc2-3)n1 | 147 to 150
CCOC(=O)Cc1cccc(-c2nc(COc3ccc(C=O)cc3OC)c(C)o2)c1 | 113 to 114
